Common to all, as to assay type: in vivo
Series [1] relates to wheat. Description: Phytotoxicity to host plant in wheat leaf rust test (rating 0-2). Also on record: key: 0: indicates no phytotoxicity; 1: indicates that the degree of phytotoxicity was sufficient to make the plant commercially worthless; 2: indicates that the plant was killed. The conditions noted are these: 300 ppm. As to the method: (§1) The efficacy of tricyclopentyltin fluoride as a control agent for three different plant fungi (grape downy mildew, apple powdery mildew and wheat leaf rust) was evaluated and compared with the performance of several other tricyclopentyltin compounds. The results of this evaluation are disclosed in the following tables 2, 3 and 4. The phytotoxicity of the various compounds tested was also evaluated at various concentration levels. […] Quantitative ratings for phytotoxicity are given in each of the first three tables. A rating of 0 indicates no phytotoxicity.
(§2) Host plants, (grape, wheat or apple, depending upon the fungus) are sprayed with a water suspension of the test compound and then inoculated with the pathogen. A number of control plants that have not been sprayed are also inoculated. After disease symptoms are well developed on the untreated control plants the test plants are graded for disease control.

Series [2] deals with wheat. Description: Phytotoxicity applied to wheat (scale 0-5). On the set-up: key: 0: no phytotoxicity; 1: very slight injury, the minimum that could be observed; 2: less than 10% of leaf surface injured; 3: 10-50% of leaf surface injured; 4: 50-90% of leaf surface injured; 5: plant killed. As to the method: (§3) The phytotoxicity of a number of tricyclopentyltin compounds and triphenyltin hydroxide on grape vines, wheat and barley was evaluated quantitatively using the following scale:
(§4) If the rating was considered to be somewhere between two integers based on observations of other plants, the lower integer followed by "0.5" was employed as the rating.

The test system of series [3] is Grape Downy Mildew (Plasmopara viticola). Description: Grape downy mildew control (Procedure 3).
Source text: (§5) PROCEDURE 3--Employed Using Grape Downy Mildew (Plasmopara viticola), Wheat Leaf Rust (Puccinia recondita) and Apple Powdery Mildew (Podosphaera leucotricha)
as §2

Series [4] deals with Apple Powdery Mildew (Podosphaera leucotricha). Description: Apple powdery mildew control (Procedure 3).
Source text: as §5, §2

Series [5] has as its system Wheat Leaf Rust (Puccinia recondita). Description: Wheat leaf rust control (Procedure 3). The settings on record: 300 ppm.
Source text: as §5, §2

A further series has as its system grape. The series can be described thus: Phytotoxicity to host plant in grape downy mildew test (rating 0-2). Also on record: key to Phytotoxicity: 0: indicates no phytotoxicity; 1: indicates that the degree of phytotoxicity was sufficient to make the plant commercially worthless; 2: indicates that the plant was killed. The settings on record: for Phytotoxicity: rating 0-2. The method, then: as §1, §2

A further series concerns Grape Vines. Description: Phytotoxicity applied to grape vines (scale 0-5). On the set-up: key to Phytotoxicity: 0: no phytotoxicity; 1: very slight injury, the minimum that could be observed; 2: less than 10% of leaf surface injured; 3: 10-50% of leaf surface injured; 4: 50-90% of leaf surface injured; 5: plant killed. The conditions noted are these: for Phytotoxicity: scale 0-5. The method, then:
as §3, §4

Another series has as its system Barley. Description: Phytotoxicity applied to barley (scale 0-5). Also on record: key: 0: no phytotoxicity; 1: very slight injury, the minimum that could be observed; 2: less than 10% of leaf surface injured; 3: 10-50% of leaf surface injured; 4: 50-90% of leaf surface injured; 5: plant killed. The method, then:
as §3, §4

Consider `[Cl][Sn]([CH]1CCCC1)([CH]1CCCC1)[CH]1CCCC1` [Tricyclopentyltin chloride], for which the Phytotoxicity is listed as 2 in the series with wheat [1], 1 in the series with wheat [2] (75 ppm), 3 (10-50% of leaf surface injured) in the series with wheat [2] (300 ppm) and 5 with wheat [2] (1200 ppm).

On to `[F][Sn]([CH]1CCCC1)([CH]1CCCC1)[CH]1CCCC1` [Tricyclopentyltin fluoride], for which the “control rating (comparison in words)” value in series [3] (75 ppm) was “higher than the two other tricyclopentyltin compounds”. Also, the “activity against representative plant fungi (comparison in words)” value in series [3] (representative plant fungi of Tables 2-4) is “highest activity against representative plant fungi of all the compounds tested”. Also, in series [4] (75 ppm), the “efficacy (comparison in words)” value was “considerably higher than the other compounds tested”. Besides, in series [5], the “control of wheat leaf rust (in words)” value is reported as “effectively controlled wheat leaf rust”. Moreover, the Phytotoxicity in the series with grape (75 ppm) is reported as 0; in the series with grape (300 ppm), 0; in the series on wheat [1], 0; in the series with Grape Vines (75 ppm), 0; in the series on Grape Vines (300 ppm) it was 1.5; in the series with Grape Vines (1200 ppm) it was 3.5. Moreover, the Phytotoxicity was 0 in the series with wheat [2] (75 ppm); 0 in the series on wheat [2] (300 ppm); 1.5 in the series with wheat [2] (1200 ppm); 0 with Barley (38 ppm); 1 in the series on Barley (150 ppm); 2 (less than 10% of leaf surface injured) in the series on Barley (600 ppm). The “phytotoxic effects (in words)” value in the series with grape (300 ppm) is given as “did not produce any phytotoxic effects”. Moreover, in the series with Grape Vines (Tables 5-7: grape vines, wheat and barley), the “damage to plants (comparison in words)” value is listed as “least damaging to the plants”.

Consider `[OH][Sn]([CH]1CCCC1)([CH]1CCCC1)[CH]1CCCC1` [Tricyclopentyltin hydroxide], for which the Phytotoxicity in the series on grape (75 ppm) was 0; in the series on grape (300 ppm), 1; in the series on wheat [1], 0; with Grape Vines (75 ppm), 1; in the series with Grape Vines (300 ppm) it was 2.5; with Grape Vines (1200 ppm), 4.5. In addition, the Phytotoxicity with wheat [2] (75 ppm) was 0; in the series with wheat [2] (300 ppm), 1; with wheat [2] (1200 ppm) it was 2.5; with Barley (38 ppm) it was 1; in the series on Barley (150 ppm), 2 (less than 10% of leaf surface injured); with Barley (600 ppm), 3.5.

As for `[OH][Sn]([c]1ccccc1)([c]1ccccc1)[c]1ccccc1` [Triphenyltin hydroxide], the “% Control” value in series [3] (75 ppm) turned out to be 95%; in series [3] (300 ppm), 100%; in series [4] (75 ppm) it was 25%; in series [5], 25%. Moreover, in series [3] (75 ppm), the “control rating (comparison in words)” value is given as “higher control rating at this level”. The “phytotoxicity (in words)” value in the series with grape (75 ppm) was “too phytotoxic to be commercially useful”. The Phytotoxicity with grape (75 ppm) is recorded as 1; in the series on grape (300 ppm), 1; in the series with wheat [1] it was 0; in the series on Grape Vines (75 ppm), 2.5; with Grape Vines (300 ppm), 3.5; in the series with Grape Vines (1200 ppm), 5. Also, the Phytotoxicity in the series on Barley (38 ppm) is 1; in the series on Barley (150 ppm) it was 3 (10-50% of leaf surface injured); in the series with Barley (600 ppm), 4 (50-90% of leaf surface injured).

With Tricyclopentyltin acetate, the “% Control” value in series [4] (75 ppm) was found to be 25%. Also, the Phytotoxicity in the series with Grape Vines (75 ppm) is 2 (less than 10% of leaf surface injured); in the series with Grape Vines (300 ppm) it was 4 (50-90% of leaf surface injured); in the series with Grape Vines (1200 ppm), 5; in the series on Barley (38 ppm) it was 1; in the series with Barley (150 ppm) it was 2 (less than 10% of leaf surface injured); in the series with Barley (600 ppm) it was 3.5.

Tricyclopentyltin benzoate: the “% Control” value in series [3] (75 ppm) amounted to 50%; in series [3] (300 ppm), 75%. For the same compound, the Phytotoxicity in the series on grape (75 ppm) was found to be 0; with grape (300 ppm), 1.

Consider Tricyclopentyltin phenoxide, for which the “% Control” value in series [4] (75 ppm) turned out to be 50%; in series [4] (300 ppm) it was 83%.

The record behind these values is patent publication US4191698A, “Tricyclopentyltin fluoride” (priority 1977, dated 1980).
